In patent publication US7939292B2, “Modified heparinase III and methods of sequencing therewith” (Massachusetts Institute of Technology, priority 2000, dated 2011):

Tests used:
Format in all cases: biochemical, Flavobacterium heparinum
[1] = biological target: T1, heparinase III (Pedobacter heparinus, UniProt Q59289); test: DEPC inactivation of heparinase III (UV 232 nm activity assay)
T1 construct: compared to the native heparinase III isolated directly from Flavobacterium heparinum; purchased IBEX Technologies (Montreal, Canada), received as a gift rather than bought; host or cells: Flavobacterium heparinum (natural producer)
T1 sequence (Q59289 25-659): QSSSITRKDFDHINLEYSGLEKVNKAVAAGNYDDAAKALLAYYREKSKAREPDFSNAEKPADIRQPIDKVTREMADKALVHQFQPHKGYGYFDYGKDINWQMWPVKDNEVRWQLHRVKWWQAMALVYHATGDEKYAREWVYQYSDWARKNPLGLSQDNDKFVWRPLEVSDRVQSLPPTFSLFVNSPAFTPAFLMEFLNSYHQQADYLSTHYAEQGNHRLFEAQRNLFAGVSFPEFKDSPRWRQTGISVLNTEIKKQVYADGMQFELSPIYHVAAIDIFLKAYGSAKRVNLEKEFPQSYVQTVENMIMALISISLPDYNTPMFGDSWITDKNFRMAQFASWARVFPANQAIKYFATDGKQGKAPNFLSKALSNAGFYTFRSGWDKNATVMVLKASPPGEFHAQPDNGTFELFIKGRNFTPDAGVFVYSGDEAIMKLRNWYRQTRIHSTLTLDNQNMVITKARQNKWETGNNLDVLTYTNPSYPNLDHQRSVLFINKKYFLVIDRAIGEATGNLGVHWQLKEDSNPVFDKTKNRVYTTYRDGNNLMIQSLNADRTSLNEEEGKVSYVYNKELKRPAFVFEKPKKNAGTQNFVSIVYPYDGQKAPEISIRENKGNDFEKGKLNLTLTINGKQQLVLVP
Method: The activity of heparinase III was measured using a UV 232 nm assay similar to those reported for heparinase I and heparinase II (Godavarti, R., Cooney, C. L., Langer, R., and Sasisekharan, R. (1996) Biochemistry 35, 6846-52; Shriver, Z., Hu, Y., and Sasisekharan, R. (1998) J. Biol. Chem. 273, 10160-67; and Lohse, D. and Linhardt, R. J. (1992) J. Biol. Chem. 267, 781-87). Briefly, the increase in absorbance at 232 nm as a function of time was monitored under saturating substrate conditions. All assays were performed with heparan sulfate at a concentration of 2 mg/ml in 50 mM sodium phosphate, pH 7.6. The temperature for enzymatic activity measurements was kept constant at 35° C.
(A) DEPC Inactivation of Heparinase III. At pH values ranging from 6.0 to 8.0, heparinase III (50 μg/mL) was incubated with DEPC in 50 mM sodium phosphate buffer at 25° C. The DEPC stock solution (6.9 M) was diluted with ethanol. […] At each pH, three reactions were run using different concentrations of DEPC, ranging from 50 μM to 2.5 mM. At fixed time intervals, 25 μL aliquots were withdrawn from the reaction mixtures for the UV 232 nm activity assay.
The kinetics of DEPC inactivation of heparinase III was determined by plotting the natural log of percent activity versus an adjusted time term (to account for the decomposition of DEPC). Briefly, this adjusted time term (t′) was calculated according to the following equation: […]
In this equation, k′ is the first order rate constant for DEPC hydrolysis and t is the measured time after addition of DEPC to the heparinase III solution. At each pH, the order of the reaction in DEPC was determined by plotting the observed rate constants of inactivation at each pH vs. log [DEPC]. The slope of this graph is n, the order of the reaction with respect to DEPC (Lundblad, R. (1995) Techniques in Protein Modification, CRC Press, Boca Raton).
Heparinase III was incubated with 0.31 (□), 0.54 (●), 0.97 (◯), 1.5 (▴), 1.9 (Δ) mM DEPC at pH 6.5 and at 25° C. (shown in inset of FIG. 1). […]

[2] = biological target: T1, heparinase III; test: Quantification of histidines modified by DEPC (240 nm) with activity check
Method: (D) Quantification of the Number of Histidines Modified by DEPC. The extent of modification of an enzyme by DEPC can be determined by monitoring the formation of the N-carbethoxylhistidyl adduct at 240 nm. At time zero, 1.5 mM DEPC was added to the cuvette containing heparinase III in sodium phosphate buffer, pH 7.0. The change in absorbance at 240 nm was monitored every minute for 10 min. The number of modified residues was determined using a molar extinction coefficient of 3,200 M^−1cm^−1 (Lundblad, R. (1995) Techniques in Protein Modification, CRC Press, Boca Raton).
At time zero, 1.5 mM DEPC was added to a cuvette containing heparinase III (540 μg/mL) in sodium phosphate buffer, pH 7.0. The change in absorbance at 240 nm was monitored at time intervals for 10 min. The number of modified histidines was calculated using a ε=3200 M^−1cm^−1. At the beginning and end of the experiment, aliquots of heparinase III were withdrawn and tested for activity. Less than 5% of initial activity remained after 10 minutes incubation with DEPC.

[3] = biological target: T1, heparinase III; test: Reactivation of DEPC-modified enzyme with hydroxylamine; design: Activity (%): concentration or dose not given beside the values
Method: (B) Reactivation of DEPC-Modified Enzyme with Hydroxylamine. Similar to what was completed with heparinase I and II (Godavarti, R., Cooney, C. L., Langer, R., and Sasisekharan, R. (1996) Biochemistry 35, 6846-52 and Shriver, Z., Hu, Y., and Sasisekharan, R. (1998) J. Biol. Chem. 273, 10160-67), heparinase III (50 μg/mL) was incubated with 0.97 mM DEPC, pH 6.5 until its enzymatic activity was reduced to 50% of its initial value. […] The reaction was incubated at room temperature for 6 hours. Aliquots were withdrawn every hour for the activity assay. The control mixture contained no DEPC but the same concentration of hydroxylamine to account for the loss of nonspecific activity. The ratio of the activity of the reaction mixture over the activity of the control was calculated to determine recovery of enzymatic activity.

[4] = biological target: T1, heparinase III; test: Substrate protection of heparinase III against DEPC inactivation; settings: 2 mg/mL heparan sulfate 30 min before 1.5 mM DEPC
Method: (C) Substrate Protection of Heparinase III against DEPC Inactivation. Heparinase III (50 μg/mL) was pre-incubated with 2 mg/mL heparan sulfate in 50 mM sodium phosphate, pH 7.6 for 30 minutes prior to the addition of 1.5 mM DEPC. A control reaction with no prior incubation of substrate was also completed. The time course of inactivation for both was determined using the heparinase III activity assay.
Substrate protection of heparinase III inactivation by DEPC was also assessed (FIG. 4). Heparinase III (50 μg/mL) was incubated with 2 mg/mL heparan sulfate for 30 min. 1.5 mM DEPC was added to the reaction and time course of inactivation was completed using the heparinase III activity assay (O). A control reaction without pre-incubation with heparan sulfate was also done (□).

CCOC(=O)OC(=O)OCC [DEPC, diethylpyrocarbonate]
inhibition of heparinase III [1]: inhibit in a dose-dependent fashion
kinact/KI ([1]; 0.31-1.9 mM DEPC, pH 6.5, 25° C., read-out: second-order rate constant of inactivation (converted)): 3.33 M⁻¹ s⁻¹
order of the reaction in DEPC (slope of kinact vs. log [DEPC]) ([1]; pH 6.5): 1
histidines modified per enzyme molecule ([2]; 1.5 mM DEPC, pH 7.0, 10 minutes): 1.8
remaining activity at 1500 µM ([2]; after 10 minutes incubation with 1.5 mM DEPC, pH 7.0, read-out: initial activity remaining): < 5%
activity at 970 µM ([3]; Time 0 min after hydroxylamine, 0.97 mM DEPC, pH 6.5): 51%
Activity (%) ([3]; Time 30 min after hydroxylamine): 60%
Activity (%) ([3]; Time 60 min after hydroxylamine): 66%
Activity (%) ([3]; Time 90 min after hydroxylamine): 72%
Activity (%) ([3]; Time 180 min after hydroxylamine): 76%
Activity (%) ([3]; Time 240 min after hydroxylamine): 78%
Activity (%) ([3]; Time 360 min after hydroxylamine): 80%
reversibility of DEPC modification ([3]; incubation with 300 mM hydroxylamine): 90%
inactivation kinetics after preincubation with heparan sulfate [4]: lower inactivation kinetics
